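Following 48 hours of exposure in 96-well plates, responses at five concentrations were used to interpolate endpoints linearly. Definition used: TGI = concentration required for complete inhibition of growth.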

One experiment deals with ACHN renal. As to the kind of experiment: NCI-60 cell line screen, 48 h.
As for `Cc1cc(O)c(/C=N/C(=S)NCc2ccccc2)c(=O)o1`, the TGI was above 100 µM.

A further experiment concerns NCI-H23 lung. Description: NCI-60 cell line screen, 48 h.
For the compound `O=C1NCCN1/N=C/c1c(Cl)n(-c2ccccc2)c2ccccc12`, the TGI is 44.8 µM.

On to `Cc1ccc(S(=O)(=O)N/N=C/C2(c3ccccc3)c3ccccc3-c3ccccc32)cc1`, for which the TGI worked out at 37.1 µM.

In turn, `O=C(/C=C/c1ccc2c(c1)OCO2)CC(=O)C(=O)c1c[nH]c2ccccc12` registered a TGI above 100 µM.

`Cc1cc(O)c(/C=N/C(=S)NCc2ccccc2)c(=O)o1`: the TGI is above 100 µM.

Another experiment deals with SK-MEL-2 melanoma. As to the kind of experiment: NCI-60 cell line screen, 48 h.
As to `O=C1NCCN1/N=C/c1c(Cl)n(-c2ccccc2)c2ccccc12`, the TGI stood at 66.4 µM.

Compound `Cc1ccc(S(=O)(=O)N/N=C/C2(c3ccccc3)c3ccccc3-c3ccccc32)cc1` registered a TGI of 25.9 µM.

On to `O=C(/C=C/c1ccc2c(c1)OCO2)CC(=O)C(=O)c1c[nH]c2ccccc12`, for which the TGI is above 100 µM.

The compound `Cc1cc(O)c(/C=N/C(=S)NCc2ccccc2)c(=O)o1` displayed a TGI above 100 µM.

The test system of a further experiment is PC-3 prostate. As to the kind of experiment: NCI-60 cell line screen, 48 h.
As to `O=C1NCCN1/N=C/c1c(Cl)n(-c2ccccc2)c2ccccc12`, the TGI came to 98.8 µM.

On to `Cc1ccc(S(=O)(=O)N/N=C/C2(c3ccccc3)c3ccccc3-c3ccccc32)cc1`, for which the TGI amounted to 13.4 µM.

For the compound `O=C(/C=C/c1ccc2c(c1)OCO2)CC(=O)C(=O)c1c[nH]c2ccccc12`, the TGI is above 100 µM.

With `Cc1cc(O)c(/C=N/C(=S)NCc2ccccc2)c(=O)o1`, the TGI was above 100 µM.

The subject of a further experiment is HOP-92 NSCLC. As to the kind of experiment: NCI-60 cell line screen, 48 h.
`O=C1NCCN1/N=C/c1c(Cl)n(-c2ccccc2)c2ccccc12`: the TGI was 49.7 µM.

Take `Cc1ccc(S(=O)(=O)N/N=C/C2(c3ccccc3)c3ccccc3-c3ccccc32)cc1`: the TGI was determined as 25.5 µM.

Take `O=C(/C=C/c1ccc2c(c1)OCO2)CC(=O)C(=O)c1c[nH]c2ccccc12`: the TGI was above 100 µM.

The compound `Cc1cc(O)c(/C=N/C(=S)NCc2ccccc2)c(=O)o1` displayed a TGI above 100 µM.

The next experiment has as its system A498 renal. As to the kind of experiment: NCI-60 cell line screen, 48 h.
Take `O=C1NCCN1/N=C/c1c(Cl)n(-c2ccccc2)c2ccccc12`: the TGI came to 45.8 µM.

`Cc1ccc(S(=O)(=O)N/N=C/C2(c3ccccc3)c3ccccc3-c3ccccc32)cc1` displayed a TGI of 33 µM.

For the compound `O=C(/C=C/c1ccc2c(c1)OCO2)CC(=O)C(=O)c1c[nH]c2ccccc12`, the TGI is above 100 µM.

Turning to `Cc1cc(O)c(/C=N/C(=S)NCc2ccccc2)c(=O)o1`, the TGI was above 100 µM.

The test system of the next experiment is MALME-3M melanoma. Description: NCI-60 cell line screen, 48 h.
Compound `O=C1NCCN1/N=C/c1c(Cl)n(-c2ccccc2)c2ccccc12` yielded a TGI of 42.7 µM.

The compound `Cc1ccc(S(=O)(=O)N/N=C/C2(c3ccccc3)c3ccccc3-c3ccccc32)cc1` showed a TGI of 19.2 µM.

In turn, `O=C(/C=C/c1ccc2c(c1)OCO2)CC(=O)C(=O)c1c[nH]c2ccccc12` yielded a TGI above 100 µM.

In turn, `Cc1cc(O)c(/C=N/C(=S)NCc2ccccc2)c(=O)o1` gave a TGI above 100 µM.

For a further experiment, the system named is SK-OV-3 ovarian. Description: NCI-60 cell line screen, 48 h.
In turn, `O=C1NCCN1/N=C/c1c(Cl)n(-c2ccccc2)c2ccccc12` yielded a TGI above 100 µM.

Regarding `Cc1ccc(S(=O)(=O)N/N=C/C2(c3ccccc3)c3ccccc3-c3ccccc32)cc1`, the TGI came out at 39.8 µM.

For the compound `O=C(/C=C/c1ccc2c(c1)OCO2)CC(=O)C(=O)c1c[nH]c2ccccc12`, the TGI was above 100 µM.

The compound `Cc1cc(O)c(/C=N/C(=S)NCc2ccccc2)c(=O)o1` returned a TGI above 100 µM.

Another experiment concerns U251 CNS. Description: NCI-60 cell line screen, 48 h.
In turn, `O=C1NCCN1/N=C/c1c(Cl)n(-c2ccccc2)c2ccccc12` displayed a TGI of 58.3 µM.

For `Cc1ccc(S(=O)(=O)N/N=C/C2(c3ccccc3)c3ccccc3-c3ccccc32)cc1`, the TGI amounted to 26.7 µM.

The compound `O=C(/C=C/c1ccc2c(c1)OCO2)CC(=O)C(=O)c1c[nH]c2ccccc12` yielded a TGI above 100 µM.

Take `Cc1cc(O)c(/C=N/C(=S)NCc2ccccc2)c(=O)o1`: the TGI is above 100 µM.

For a further experiment, the system named is A549 NSCLC. As to the kind of experiment: NCI-60 cell line screen, 48 h.
`O=C1NCCN1/N=C/c1c(Cl)n(-c2ccccc2)c2ccccc12`: the TGI was above 100 µM.

Compound `Cc1ccc(S(=O)(=O)N/N=C/C2(c3ccccc3)c3ccccc3-c3ccccc32)cc1` gave a TGI of 19.8 µM.

The compound `O=C(/C=C/c1ccc2c(c1)OCO2)CC(=O)C(=O)c1c[nH]c2ccccc12` had a TGI above 100 µM.

Take `Cc1cc(O)c(/C=N/C(=S)NCc2ccccc2)c(=O)o1`: the TGI is above 100 µM.

Another experiment deals with HCT-15 colon. As to the kind of experiment: NCI-60 cell line screen, 48 h.
As to `O=C1NCCN1/N=C/c1c(Cl)n(-c2ccccc2)c2ccccc12`, the TGI turned out to be 39.9 µM.

`Cc1ccc(S(=O)(=O)N/N=C/C2(c3ccccc3)c3ccccc3-c3ccccc32)cc1` returned a TGI of 22.4 µM.

On to `O=C(/C=C/c1ccc2c(c1)OCO2)CC(=O)C(=O)c1c[nH]c2ccccc12`, for which the TGI is above 100 µM.

Regarding `Cc1cc(O)c(/C=N/C(=S)NCc2ccccc2)c(=O)o1`, the TGI is above 100 µM.

For the next experiment, the system named is MDA-MB-231 breast. As to the kind of experiment: NCI-60 cell line screen, 48 h.
`O=C1NCCN1/N=C/c1c(Cl)n(-c2ccccc2)c2ccccc12` returned a TGI of 44.1 µM.

`Cc1ccc(S(=O)(=O)N/N=C/C2(c3ccccc3)c3ccccc3-c3ccccc32)cc1`: the TGI came out at 20.8 µM.

For the compound `O=C(/C=C/c1ccc2c(c1)OCO2)CC(=O)C(=O)c1c[nH]c2ccccc12`, the TGI was above 100 µM.

On to `Cc1cc(O)c(/C=N/C(=S)NCc2ccccc2)c(=O)o1`, for which the TGI was above 100 µM.

The test system of the next experiment is HCT-116 colon. As to the kind of experiment: NCI-60 cell line screen, 48 h.
Turning to `O=C1NCCN1/N=C/c1c(Cl)n(-c2ccccc2)c2ccccc12`, the TGI came out at 45.6 µM.

`Cc1ccc(S(=O)(=O)N/N=C/C2(c3ccccc3)c3ccccc3-c3ccccc32)cc1` returned a TGI of 20.3 µM.

Compound `O=C(/C=C/c1ccc2c(c1)OCO2)CC(=O)C(=O)c1c[nH]c2ccccc12` registered a TGI above 100 µM.

With `Cc1cc(O)c(/C=N/C(=S)NCc2ccccc2)c(=O)o1`, the TGI is above 100 µM.

Another experiment concerns CCRF-CEM leukemia. As to the kind of experiment: NCI-60 cell line screen, 48 h.
Take `O=C1NCCN1/N=C/c1c(Cl)n(-c2ccccc2)c2ccccc12`: the TGI was above 100 µM.

In turn, `Cc1ccc(S(=O)(=O)N/N=C/C2(c3ccccc3)c3ccccc3-c3ccccc32)cc1` had a TGI above 100 µM.

Take `O=C(/C=C/c1ccc2c(c1)OCO2)CC(=O)C(=O)c1c[nH]c2ccccc12`: the TGI is 69.4 µM.

`Cc1cc(O)c(/C=N/C(=S)NCc2ccccc2)c(=O)o1` registered a TGI above 100 µM.

The subject of a further experiment is SR leukemia. As to the kind of experiment: NCI-60 cell line screen, 48 h.
In turn, `O=C1NCCN1/N=C/c1c(Cl)n(-c2ccccc2)c2ccccc12` came in with a TGI of 85.7 µM.

Compound `Cc1ccc(S(=O)(=O)N/N=C/C2(c3ccccc3)c3ccccc3-c3ccccc32)cc1` yielded a TGI above 100 µM.

`O=C(/C=C/c1ccc2c(c1)OCO2)CC(=O)C(=O)c1c[nH]c2ccccc12`: the TGI is above 100 µM.

`Cc1cc(O)c(/C=N/C(=S)NCc2ccccc2)c(=O)o1`: the TGI is above 100 µM.

Values taken from PubChem BioAssay (NCI).
